Patent EP0252983B1, “SALTS OF N-(VINYLOXIETHYL)DITHIOCARBAMIC ACID, METHOD OF OBTAINING THEREOF AND […] ON THEM” (priority 1985, dated 1987)

Legend:
Psoroptes cuniculi = test: Acaricidal activity on isolated mites; assay type: in vivo
Protocol: Die akarizide Aktivität der Stoffe wird an isolierten Milben Psoroptes cuniculi als Erreger der Psoroptesräude bei Kaninchen geprüft. Von frischen Verkrustungen von Kaninchen mit Psoroptesräude, werden zu diesem Zweck 50 Milbenexemplare (Larven, Nymphen, Imago) gewählt und in Petri-Schalen auf ein Filterpapierblatt übertragen. Dann bringt man auf Milben und die ganze Blattoberfläche 1,5 ml zu prüfende wäßrige Stofflösung in destilliertem Wasser auf. Die Schale wird mit Deckel verschlossen und in einen Thermostat bei 30 °C und Feuchtegehalt von 90 % angeordnet. Der Wirkstoff wird als wäßrige Lösung mit einer zwischen 0,0039 und 4 % liegenden Konzentration genommen. Als Vergleichsmuster dient gleichzeitig eine wäßrige Lösung von Chlorophos. Milben werden im Kontrollversuch (Kontrolle auf Lebensfähigkeit)mit 1,5 ml physiologischer Lösung behandelt und in einen anderen Thermostat unter gleichen Temperatur- und Feuchtigkeitsbedingungen aufgestellt.
Nach 1, 2, 4, 6 Stunden und alle 24 Stunden betrachtet man die Milben im Mikroskop und zählt die toten Milben. Aufgrund der Milbenvernichtung durch einen 24-stündigen Kontakt mit dem Wirkstoff ermittelt man die LK-50 Werte. Die Versuche werden 5mal wiederholt. Arithmetische Mittelwerte gibt Tabelle 14 an.

[1] = test system: Wurzelschimmelkomplex von Gewächshausgurken; test: Greenhouse trial against cucumber root mould complex (200 m^2); assay type: in vivo
From the text: Kalium-N-(vinyloxyäthyl)dithiocarbamat wurde gegen Wurzelschimmelkomplex von Gewächshausgurken auf einer Fläche von 200 m^2 und 1 ha geprüft. Die auf einer 200 m^2 großen Fläche durchgeführten Prüfungen haben gezeigt, daß Kalium-N-(vinyloxyäthyl)dithiocarbamat die 100%ige Unterdrückung von Erregern der Pythium-Fäule und der begleitenden Gurkenwurzelschimmeln bewirkt. Der Ernteertrag steigt dabei durch Bodenbehandlung um 4,2 kg/m^2 gegenüber Kontrolle (ohne Wirkstoffgabe ist der Ertrag 10 kg/m^2 und um 1,6 kg/m^2 gegenüber Fundazol an.

[2] = test system: Cladosporium cladosporioides; test: Mycelial growth inhibition on agar (contact activity); assay type: cell-based; conditions: Cladosporium cladosporioides, 120 h; Präparatkonzentration 0,006 %; Würzeagar; read-out: Myzelhemmung in %
Pythium ultimum = test: Soil fungicide test (fungal discs in treated soil); assay type: cell-based; parameters: key: Das Vorhandensein (+); das Fehlen (-) des wachsenden Myzels um die Scheibe herum; conditions: 160 mg/kg Boden
Protocol: (§1) Eine 50 g schwere Bodenprobe bringt man in ein Glasgefäß ein, sterilisiert innerhalb von 2 Stunden unter einem Druck von 2 atm, gibt dann dem Boden das Präparat als wäßrige Lösung ausgehend von 160 mg/kg zu, wonach in den Boden Scheiben mit Kulturen folgender Pilze Fusarium oxysporum, Verticillium dahliae, Rhizoctonia solani, Pythium ultimum untergebracht werden.
(§2) Nach 24 und 48 Stunden werden die Scheiben in fließendem Wasser, dann in sterilem Wasser gewaschen, auf sterilem Filterpapier getrocknet und auf eine reine Agarplatte gelegt. Das Vorhandensein (+) oder das Fehlen (-) des wachsenden Myzels um die Scheibe herum wies auf die Wirksamkeit des Präparats. Als Vergleichsmuster diente dabei Karbathion. Die Prüfergebnisse sind in der Tabelle 5 dargestellt.

Verticillium dahliae = test: Soil fungicide test (fungal discs in treated soil); assay type: cell-based; parameters: key: Das Vorhandensein (+); das Fehlen (-) des wachsenden Myzels um die Scheibe herum; conditions: 160 mg/kg Boden
Protocol: as §1, §2

Fusarium oxysporum = test: Soil fungicide test (fungal discs in treated soil); assay type: cell-based; parameters: key: Das Vorhandensein (+); das Fehlen (-) des wachsenden Myzels um die Scheibe herum; conditions: 160 mg/kg Boden
Protocol: as §1, §2

Rhizoctonia solani = test: Soil fungicide test (fungal discs in treated soil); assay type: cell-based; parameters: key: Das Vorhandensein (+); das Fehlen (-) des wachsenden Myzels um die Scheibe herum; conditions: 160 mg/kg Boden
Protocol: as §1, §2

Walrotiela subiculesa = test: Mycelial growth inhibition on agar (contact activity); assay type: cell-based; conditions: 120 h, Würzeagar, read-out: Myzelhemmung in %
Protocol: (§3) Die Prüfungen werden nach dem Verfahren zur Ermittlung der Kontaktaktivität durchgeführt. Man verwendet das in Wasser gelöste Kalium-N-(vinyloxyäthyl)dithiocarbamat, führt es in ein Nährmedium ein und vergießt auf Petri-Schalen. Nach 24 Stunden wird mit Pilzmyzelium nach einem Stichverfahren geimpft. Dann temperiert man die Schalen innerhalb von 5 Tagen bei einer zwischen 24 und 26 °C liegenden Temperatur und mißt den Durchmesser von Pilzkolonien, ermittelt den Prozentsatz der Hemmung des Myzelwachstums (S) ausgehend von Angaben am 5. Tag nach der Abbott-Formel [drawing 13] worin dc für den Durchmesser der Pilzkolonien, de für den Durchmesser von Pilzkolonien in der Schale stehen, wo ein die zu prüfenden Stoffe enthaltendes Medium vorhanden ist. Dieses Verfahren zur Ermittlung der mikrobiologischen Aktivität ist in anderen Beispielen verwendet.
(§4) Die Pilzkulturen werden auf Würzeagar gezüchtet. Ergebnisse, erhalten bei der Prüfung der fungiziden Aktivität gegen reine Kulturen von Mikroorganismen, welche Bioschädigungen hervorrufen, sind in der Tabelle 1 dargestellt.

Oidium Sp. = test: as above; assay type: cell-based; conditions: Würzeagar
Protocol: as §3, §4

Geotrichum candidum Link = test: as above; assay type: cell-based; conditions: Würzeagar
Protocol: as §3, §4

Penicillium chrysogenum = test: as above; assay type: cell-based; conditions: Würzeagar
Protocol: as §3, §4

Acremonium charticola = test: as above; assay type: cell-based; conditions: Acremonium charticola, 120 h, Würzeagar, read-out: Myzelhemmung in %
Protocol: as §3, §4

Penicillium charlesii = test: as above; assay type: cell-based; conditions: Penicillium charlesii, 120 h, Würzeagar, read-out: Myzelhemmung in %
Protocol: as §3, §4

Cladosporium resinae = test: as above; assay type: cell-based; conditions: Amorphotheca resinae, 120 h, Würzeagar, read-out: Myzelhemmung in %
Protocol: as §3, §4

Which LK-50 % (Psoroptes cuniculi; 24-stündiger Kontakt mit dem Wirkstoff) does the source give for C=COCCNC(=S)S [Kalium-N-(vinyloxyäthyl)dithiocarbamat] here?
Its LK-50 % is 0,00208%.

What about the “Vernichtung von 100 % der Milben nach Stunden” value (Psoroptes cuniculi; Konzentration 0,0039 %) of the same compound?
The value was 48 Stunden.

What about the “Vernichtung von 100 % der Milben nach Stunden” value (Psoroptes cuniculi; Konzentration 0,0078 %) of the same compound?
The value was 24 Stunden.

What about the “Vernichtung von 100 % der Milben nach Stunden” value (Psoroptes cuniculi; Konzentration 0,0625 %) of the same compound?
Its value is 6 Stunden.

What about the “Vernichtung von 100 % der Milben nach Stunden” value (Psoroptes cuniculi; Konzentration 0,125 bis 0,5 %) of the same compound?
Its value is 4 Stunden.

And the “selektive Toxizität gegen Räudemilben, dem Chlorophos überlegen” value (Psoroptes cuniculi; gegenüber Chlorophos)?
Its value is ~400 mal.

And the “Unterdrückung von Erregern der Pythium-Fäule und der begleitenden Gurkenwurzelschimmeln” value ([1]; 200 m^2 große Fläche)?
Its value is 100%.

What about the “Ernteertrag steigt gegenüber Fundazol” value ([1]; Bodenbehandlung, 200 m^2) of the same compound?
Its value is 1,6 kg/m^2.

What about the “Ernteertrag steigt gegenüber Kontrolle” value ([1]; Bodenbehandlung, 200 m^2, Kontrolle 10 kg/m^2) of the same compound?
Its value is 4,2 kg/m^2.

What about the inhibition of growth at 0.006 % [2] of the same compound?
Its inhibition of growth at 0.006 % is 100%.

And the “wachsendes Myzel um die Scheibe” value (Pythium ultimum; Haltedauer 24 Stunden)?
The value was “-”.

And the “wachsendes Myzel um die Scheibe” value (Pythium ultimum; Haltedauer 48 Stunden)?
The value was “-”.

And the “wachsendes Myzel um die Scheibe” value (Verticillium dahliae; Haltedauer 24 Stunden)?
The value was “-”.

And the “wachsendes Myzel um die Scheibe” value (Verticillium dahliae; Haltedauer 48 Stunden)?
The value was “-”.

What about the “wachsendes Myzel um die Scheibe” value (Fusarium oxysporum; Haltedauer 24 Stunden) of the same compound?
Its value is “-”.

What about the “wachsendes Myzel um die Scheibe” value (Fusarium oxysporum; Haltedauer 48 Stunden) of the same compound?
Its value is “-”.

And the “wachsendes Myzel um die Scheibe” value (Rhizoctonia solani; Haltedauer 24 Stunden)?
Its value is “-”.

What about the “wachsendes Myzel um die Scheibe” value (Rhizoctonia solani; Haltedauer 48 Stunden) of the same compound?
Its value is “-”.

What about the inhibition of growth at 0.0015 % (Walrotiela subiculesa; Präparatkonzentration 0,0015 %) of the same compound?
Its inhibition of growth at 0.0015 % is 100%.

What about the inhibition of growth at 0.003 % (Walrotiela subiculesa; Präparatkonzentration 0,003 %) of the same compound?
The inhibition of growth at 0.003 % was 100%.

And the inhibition of growth at 0.006 % (Walrotiela subiculesa; Präparatkonzentration 0,006 %)?
Its inhibition of growth at 0.006 % is 100%.

And the inhibition of growth at 0.012 % (Walrotiela subiculesa; Präparatkonzentration 0,012 %)?
The inhibition of growth at 0.012 % was 100%.

What about the inhibition of growth at 0.003 % (Oidium Sp.; 120 h, Präparatkonzentration 0,003 %, read-out: Myzelhemmung in %) of the same compound?
Its inhibition of growth at 0.003 % is 100%.

What about the inhibition of growth at 0.006 % (Oidium Sp.; 120 h, Präparatkonzentration 0,006 %, read-out: Myzelhemmung in %) of the same compound?
The inhibition of growth at 0.006 % was 100%.

And the inhibition of growth at 0.012 % (Oidium Sp.; 120 h, Präparatkonzentration 0,012 %, read-out: Myzelhemmung in %)?
The inhibition of growth at 0.012 % was 100%.

What about the Myzelhemmung in % (Oidium Sp.; Präparatkonzentration 0,0015 %) of the same compound?
The Myzelhemmung in % was 96%.

And the inhibition of growth at 0.012 % (Geotrichum candidum Link; Geotrichum candidum, 120 h, Präparatkonzentration 0,012 %, read-out: Myzelhemmung in %)?
Its inhibition of growth at 0.012 % is 100%.

And the Myzelhemmung in % (Geotrichum candidum Link; Präparatkonzentration 0,0015 %)?
The Myzelhemmung in % was 30%.

And the Myzelhemmung in % (Geotrichum candidum Link; Präparatkonzentration 0,003 %)?
Its Myzelhemmung in % is 100%.

What about the Myzelhemmung in % (Geotrichum candidum Link; Präparatkonzentration 0,006 %) of the same compound?
Its Myzelhemmung in % is 100%.

What about the inhibition of growth at 0.003 % (Penicillium chrysogenum; Penicillium chrysogenum, 120 h, Präparatkonzentration 0,003 %, read-out: Myzelhemmung in %) of the same compound?
The inhibition of growth at 0.003 % was 26%.

What about the inhibition of growth at 0.006 % (Penicillium chrysogenum; Penicillium chrysogenum, 120 h, Präparatkonzentration 0,006 %, read-out: Myzelhemmung in %) of the same compound?
The inhibition of growth at 0.006 % was 93%.

What about the inhibition of growth at 0.012 % (Penicillium chrysogenum; Penicillium chrysogenum, 120 h, Präparatkonzentration 0,012 %, read-out: Myzelhemmung in %) of the same compound?
The inhibition of growth at 0.012 % was 100%.

And the Myzelhemmung in % (Penicillium chrysogenum; Präparatkonzentration 0,0015 %)?
The Myzelhemmung in % was 15%.

And the inhibition of growth at 0.003 % (Acremonium charticola; Präparatkonzentration 0,003 %)?
The inhibition of growth at 0.003 % was 100%.

And the inhibition of growth at 0.006 % (Acremonium charticola; Präparatkonzentration 0,006 %)?
Its inhibition of growth at 0.006 % is 100%.

And the inhibition of growth at 0.012 % (Acremonium charticola; Präparatkonzentration 0,012 %)?
The inhibition of growth at 0.012 % was 100%.

And the inhibition of growth at 0.0015 % (Penicillium charlesii; Präparatkonzentration 0,0015 %)?
The inhibition of growth at 0.0015 % was 30%.

What about the inhibition of growth at 0.003 % (Penicillium charlesii; Präparatkonzentration 0,003 %) of the same compound?
The inhibition of growth at 0.003 % was 55%.

What about the inhibition of growth at 0.006 % (Penicillium charlesii; Präparatkonzentration 0,006 %) of the same compound?
Its inhibition of growth at 0.006 % is 90%.

What about the inhibition of growth at 0.012 % (Penicillium charlesii; Präparatkonzentration 0,012 %) of the same compound?
The inhibition of growth at 0.012 % was 100%.

What about the inhibition of growth at 0.0015 % (Cladosporium resinae; Präparatkonzentration 0,0015 %) of the same compound?
Its inhibition of growth at 0.0015 % is 100%.

What about the inhibition of growth at 0.003 % (Cladosporium resinae; Präparatkonzentration 0,003 %) of the same compound?
Its inhibition of growth at 0.003 % is 100%.

What about the inhibition of growth at 0.006 % (Cladosporium resinae; Präparatkonzentration 0,006 %) of the same compound?
Its inhibition of growth at 0.006 % is 100%.

And the inhibition of growth at 0.012 % (Cladosporium resinae; Präparatkonzentration 0,012 %)?
The inhibition of growth at 0.012 % was 100%.
